Values joined by “and” are separate entries in the source; they are usually repeats but may differ in a detail not shown here. Equal entries are not always repeated. Records with an inconclusive call do not appear.
System: BDF1 mice, colon carcinoma 38 sc, T/C %
Experiment: NCI In Vivo Anticancer Drug Screen. Data for tumor model Colon Carcinoma 38 (subcutaneous) in B6D2F1 (BDF1) mice
Settings: endpoint: median tumor weight (est.), higher = larger tumour
Procedure, shortened: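 Ratio of survival or tumor size, compound-treated animals relative to vehicle controls, in tumor-bearing mice.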

[1] = dose: 6.25 mg/kg/injection, schedule: Q07DX002 (ip), vehicle: saline with Tween-80
[2] = dose: 25.0 mg/kg/injection, schedule: Q07DX002 (ip), vehicle: Klucel (hydroxypropylcellulose) (HPC)

## COc1ccc([I+]c2cccc(Cl)c2)cc1Cl
dose: 6.25 mg/kg/injection, schedule: Q07DX003 (ip), vehicle: saline with Tween-80
  T/C: 54 % of control
dose: 12.5 mg/kg/injection, schedule: Q07DX003 (ip), vehicle: saline with Tween-80
  T/C: 78 % of control
dose: 25.0 mg/kg/injection, schedule: Q07DX003 (ip), vehicle: saline with Tween-80
  T/C: 100 % of control
dose: 50.0 mg/kg/injection, schedule: Q07DX003 (ip), vehicle: saline with Tween-80
  T/C: 111 % of control
dose: 100.0 mg/kg/injection, schedule: Q07DX003 (ip), vehicle: saline with Tween-80
  T/C: 105 % of control
dose: 200.0 mg/kg/injection, schedule: Q07DX003 (ip), vehicle: saline with Tween-80
  T/C: 72 % of control

## CCCCCCCC(=O)[O][Hg][CH2]C1COC([CH2][Hg][O]C(=O)CCCCCCC)CO1 (stereo unspecified)
dose: 3.12 mg/kg/injection, schedule: Q07DX002 (ip), vehicle: saline with Tween-80
  T/C: 76 % of control and 97 % of control
[1]
  T/C: 101 % of control
dose: 25.0 mg/kg/injection, schedule: Q07DX002 (ip), vehicle: saline with Tween-80
  T/C: 108 % of control and 105 % of control
dose: 100.0 mg/kg/injection, schedule: Q07DX002 (ip), vehicle: saline with Tween-80
  T/C: 81 % of control

## CN(C)c1ccc2c(N(C)C)cc(N(C)C)nc2c1
dose: 3.12 mg/kg/injection, schedule: Q07DX002 (ip), vehicle: Klucel (hydroxypropylcellulose) (HPC)
  T/C: 77 % of control and 101 % of control
dose: 12.5 mg/kg/injection, schedule: Q07DX002 (ip), vehicle: Klucel (hydroxypropylcellulose) (HPC)
  T/C: 114 % of control and 107 % of control
[2]
  T/C: 72 % of control

## C1CCC2C[N-]CCC2C1.C1CCC2C[N-]CCC2C1.C1CCC2C[N-]CCC2C1.C1CCC2C[N-]CCC2C1.[Cl][Rh][Cl] (stereo unspecified)
dose: 1.0 mg/kg/injection, schedule: Q07DX003 (ip), vehicle: saline
  T/C: 107 % of control
dose: 2.0 mg/kg/injection, schedule: Q07DX003 (ip), vehicle: saline
  T/C: 62 % of control
dose: 4.0 mg/kg/injection, schedule: Q07DX003 (ip), vehicle: saline
  T/C: 82 % of control
dose: 8.0 mg/kg/injection, schedule: Q07DX003 (ip), vehicle: saline
  T/C: 87 % of control
dose: 16.0 mg/kg/injection, schedule: Q07DX003 (ip), vehicle: saline
  T/C: 78 % of control

## OCC1OC(n2cnc3c2NC=NC[C@H]3O)CC1O (stereo partly specified)
dose: 0.63 mg/kg/injection, schedule: Q07DX002 (ip), vehicle: saline
  T/C: 70 % of control
dose: 1.25 mg/kg/injection, schedule: Q07DX002 (ip), vehicle: saline
  T/C: 83 % of control
dose: 2.0 mg/kg/injection, schedule: Q07DX002 (ip), vehicle: saline
  T/C: 68 % of control
dose: 2.5 mg/kg/injection, schedule: Q07DX002 (ip), vehicle: saline
  T/C: 43 % of control
dose: 5.0 mg/kg/injection, schedule: Q07DX002 (ip), vehicle: saline
  T/C: 90 % of control
dose: 8.0 mg/kg/injection, schedule: Q07DX002 (ip), vehicle: saline
  T/C: 67 % of control
dose: 10.0 mg/kg/injection, schedule: Q07DX002 (ip), vehicle: saline
  T/C: 45 % of control
dose: 16.0 mg/kg/injection, schedule: Q07DX002 (ip), vehicle: saline
  T/C: 74 % of control

## COC(=O)C(F)C(Br)C(=O)OC (stereo unspecified)
[1]
  T/C: 95 % of control and 99 % of control
dose: 12.5 mg/kg/injection, schedule: Q07DX002 (ip), vehicle: saline with Tween-80
  T/C: 63 % of control

## O=C1C=C[C@H](O)[C@@]2(CO)O[C@@H]12
dose: 0.62 mg/kg/injection, schedule: Q07DX002 (ip), vehicle: saline with Tween-80
  T/C: 104 % of control
dose: 1.25 mg/kg/injection, schedule: Q07DX002 (ip), vehicle: saline with Tween-80
  T/C: 116 % of control
dose: 2.5 mg/kg/injection, schedule: Q07DX002 (ip), vehicle: saline with Tween-80
  T/C: 69 % of control
dose: 5.0 mg/kg/injection, schedule: Q07DX002 (ip), vehicle: saline with Tween-80
  T/C: 79 % of control
dose: 10.0 mg/kg/injection, schedule: Q07DX002 (ip), vehicle: saline with Tween-80
  T/C: 97 % of control

## O=C1C2(Cl)C3(Cl)C4(Cl)C(Cl)(Cl)C5(Cl)[C@]3(Cl)C1(Cl)[C@]5(Cl)C24Cl (stereo partly specified)
[2]
  T/C: 88 % of control
dose: 50.0 mg/kg/injection, schedule: Q07DX002 (ip), vehicle: Klucel (hydroxypropylcellulose) (HPC)
  T/C: 75 % of control
dose: 100.0 mg/kg/injection, schedule: Q07DX002 (ip), vehicle: Klucel (hydroxypropylcellulose) (HPC)
  T/C: 44 % of control

— PubChem BioAssay AID212 (DTP/NCI, 2004)
